Measured values taken from patent US20230146870A1, “METHOD TO QUANTIFY AFFINITY AND SELECTIVITY OF SMALL MOLECULES FOR PROTEINS IN LIVING CELLS” (Ohio State Innovation Foundation, priority 2021, published 2023).

Experiments:
mouse PKCγ-mVenus = mouse PKCγ-mVenus (Mus musculus, UniProt P63318); assay: Fluorescent cellular competition assay with probe 47, PKCγ-mVenus; format: binding; parameters: eight plasmids encoding full length mouse PKC isozymes fused to; expressed in transfected cells; host or cells: HEK293
Excerpt: (§1) Labeled compounds (tracers) can be used to measure dissociation constants (Kd) and evaluate how tightly different compounds bind to a target protein. However, labeled ligands are not always readily accessible and labels such as fluorophores on small molecules can affect affinities compared to unlabeled compounds. As an alternative, competitive binding assays are widely used to quantify the affinity of small molecules for target proteins. This approach can measure binding by varying the concentration of an unlabeled ligand in the presence of a fixed concentration of a tracer of interest (FIG. 24). The feasibility of this approach for quantification of cellular Ki values using probe 47 was validated with PMA as shown in Table 1.
(§2) HEK293 cells were transfected with different plasmids encoding fluorescent PKC isoforms.

mouse PKCδ-mVenus = mouse PKCδ-mVenus (Mus musculus, UniProt P28867); assay: Fluorescent cellular competition assay with probe 47, PKCδ-mVenus; format: binding; parameters: eight plasmids encoding full length mouse PKC isozymes fused to; expressed in transfected cells; host or cells: HEK293
Chain of mouse PKCδ-mVenus (P28867 whole entry, the tested form may be a part): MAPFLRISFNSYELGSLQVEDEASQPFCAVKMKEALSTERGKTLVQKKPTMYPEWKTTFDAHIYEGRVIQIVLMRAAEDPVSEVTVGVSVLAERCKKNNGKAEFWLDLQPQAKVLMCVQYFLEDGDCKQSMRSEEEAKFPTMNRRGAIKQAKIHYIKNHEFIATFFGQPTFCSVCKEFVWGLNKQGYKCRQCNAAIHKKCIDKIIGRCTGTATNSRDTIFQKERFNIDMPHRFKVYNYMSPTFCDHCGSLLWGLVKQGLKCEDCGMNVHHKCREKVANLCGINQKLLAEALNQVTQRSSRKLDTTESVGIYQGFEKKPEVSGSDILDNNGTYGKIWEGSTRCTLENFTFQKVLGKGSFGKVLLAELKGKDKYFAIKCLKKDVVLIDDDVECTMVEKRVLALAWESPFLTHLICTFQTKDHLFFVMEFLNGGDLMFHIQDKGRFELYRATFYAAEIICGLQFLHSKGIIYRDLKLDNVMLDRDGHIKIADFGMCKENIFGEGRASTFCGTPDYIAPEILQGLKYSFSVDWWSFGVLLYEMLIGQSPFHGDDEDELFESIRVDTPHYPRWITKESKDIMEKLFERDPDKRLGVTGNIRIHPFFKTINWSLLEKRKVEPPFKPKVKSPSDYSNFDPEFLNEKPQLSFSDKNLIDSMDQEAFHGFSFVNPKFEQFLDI
Excerpt: as §1, §2

mouse PKCε-mVenus = target: T1, mouse PKCε-mVenus (Mus musculus, UniProt P16054); assay: Fluorescent cellular competition assay with probe 47, PKCε-mVenus; format: binding; parameters: eight plasmids encoding full length mouse PKC isozymes fused to; expressed in transfected cells; host or cells: HEK293
T1 sequence (P16054 1-737): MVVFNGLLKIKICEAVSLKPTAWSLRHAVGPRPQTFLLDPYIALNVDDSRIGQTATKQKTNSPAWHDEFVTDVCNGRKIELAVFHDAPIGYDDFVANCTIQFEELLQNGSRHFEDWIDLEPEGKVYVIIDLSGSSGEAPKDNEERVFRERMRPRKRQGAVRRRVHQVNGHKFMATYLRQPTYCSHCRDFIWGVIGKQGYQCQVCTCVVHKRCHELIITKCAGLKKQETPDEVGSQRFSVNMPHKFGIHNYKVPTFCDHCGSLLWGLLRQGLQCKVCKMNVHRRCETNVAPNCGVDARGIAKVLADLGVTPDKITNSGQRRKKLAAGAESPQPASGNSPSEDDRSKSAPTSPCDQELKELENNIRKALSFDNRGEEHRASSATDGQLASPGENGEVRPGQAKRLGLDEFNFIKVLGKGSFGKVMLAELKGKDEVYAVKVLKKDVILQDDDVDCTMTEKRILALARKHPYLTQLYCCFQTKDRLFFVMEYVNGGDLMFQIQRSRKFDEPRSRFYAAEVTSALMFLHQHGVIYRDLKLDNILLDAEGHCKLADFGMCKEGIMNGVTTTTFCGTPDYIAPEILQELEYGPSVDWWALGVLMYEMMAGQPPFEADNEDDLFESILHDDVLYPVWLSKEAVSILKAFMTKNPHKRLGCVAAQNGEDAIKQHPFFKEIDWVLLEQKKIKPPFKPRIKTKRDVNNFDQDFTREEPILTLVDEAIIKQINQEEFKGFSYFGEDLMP
Excerpt: as §1, §2

mouse PKCβI-mVenus [1] = target: T2, mouse PKCβI-mVenus (Mus musculus, UniProt P68404); assay: Fluorescent cellular competition assay with probe 47, PKCβI-mVenus; format: binding
T2 construct: eight plasmids encoding full length mouse PKC isozymes fused to; expressed in transfected cells; host or cells: HEK293
T2 sequence (P68404 whole entry, the tested form may be a part): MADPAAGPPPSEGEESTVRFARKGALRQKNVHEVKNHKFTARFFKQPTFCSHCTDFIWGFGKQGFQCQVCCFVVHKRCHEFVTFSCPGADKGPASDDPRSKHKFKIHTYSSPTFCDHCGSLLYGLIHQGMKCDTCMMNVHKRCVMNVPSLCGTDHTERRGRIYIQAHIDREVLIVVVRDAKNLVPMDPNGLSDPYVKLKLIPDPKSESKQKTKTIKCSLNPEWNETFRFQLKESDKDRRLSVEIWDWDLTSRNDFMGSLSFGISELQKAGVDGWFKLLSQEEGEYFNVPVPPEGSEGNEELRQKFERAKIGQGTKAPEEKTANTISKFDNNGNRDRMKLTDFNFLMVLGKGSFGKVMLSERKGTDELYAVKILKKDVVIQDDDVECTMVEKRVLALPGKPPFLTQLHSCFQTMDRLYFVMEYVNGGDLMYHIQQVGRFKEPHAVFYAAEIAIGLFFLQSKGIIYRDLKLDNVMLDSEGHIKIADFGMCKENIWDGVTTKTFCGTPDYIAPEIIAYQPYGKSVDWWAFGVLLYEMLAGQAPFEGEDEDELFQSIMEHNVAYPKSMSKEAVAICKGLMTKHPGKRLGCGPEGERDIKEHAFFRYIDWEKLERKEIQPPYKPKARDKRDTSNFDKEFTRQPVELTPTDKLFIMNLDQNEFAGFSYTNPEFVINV
Excerpt: as §1, §2

mouse PKCη-mVenus = mouse PKCη-mVenus (Mus musculus, UniProt P23298); assay: Fluorescent cellular competition assay with probe 47, PKCη-mVenus; format: binding; parameters: eight plasmids encoding full length mouse PKC isozymes fused to; expressed in transfected cells; host or cells: HEK293
Chain of mouse PKCη-mVenus (P23298 whole entry, the tested form may be a part): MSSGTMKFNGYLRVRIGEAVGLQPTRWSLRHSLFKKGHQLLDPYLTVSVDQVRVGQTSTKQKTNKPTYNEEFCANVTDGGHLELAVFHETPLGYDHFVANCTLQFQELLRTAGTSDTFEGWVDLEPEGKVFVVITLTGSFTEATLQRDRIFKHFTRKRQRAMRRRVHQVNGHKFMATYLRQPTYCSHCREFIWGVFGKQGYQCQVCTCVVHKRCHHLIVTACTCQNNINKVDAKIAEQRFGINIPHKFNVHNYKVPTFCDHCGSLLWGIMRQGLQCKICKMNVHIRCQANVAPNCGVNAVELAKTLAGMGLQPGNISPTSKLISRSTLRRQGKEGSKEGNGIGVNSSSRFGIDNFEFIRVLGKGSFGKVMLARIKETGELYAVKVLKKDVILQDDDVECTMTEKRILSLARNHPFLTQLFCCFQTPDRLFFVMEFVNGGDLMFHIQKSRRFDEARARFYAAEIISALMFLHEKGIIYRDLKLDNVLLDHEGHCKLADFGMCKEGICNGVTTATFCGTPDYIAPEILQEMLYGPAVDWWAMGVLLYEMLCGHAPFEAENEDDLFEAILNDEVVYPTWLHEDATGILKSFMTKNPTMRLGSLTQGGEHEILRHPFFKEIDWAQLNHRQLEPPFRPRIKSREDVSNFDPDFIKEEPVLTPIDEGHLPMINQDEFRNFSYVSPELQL
Excerpt: as §1, §2

mouse PKCθ-mVenus = mouse PKCθ-mVenus (Mus musculus, UniProt Q02111); assay: Fluorescent cellular competition assay with probe 47, PKCθ-mVenus; format: binding; parameters: eight plasmids encoding full length mouse PKC isozymes fused to; expressed in transfected cells; host or cells: HEK293 (transient)
Chain of mouse PKCθ-mVenus (Q02111 whole entry, the tested form may be a part): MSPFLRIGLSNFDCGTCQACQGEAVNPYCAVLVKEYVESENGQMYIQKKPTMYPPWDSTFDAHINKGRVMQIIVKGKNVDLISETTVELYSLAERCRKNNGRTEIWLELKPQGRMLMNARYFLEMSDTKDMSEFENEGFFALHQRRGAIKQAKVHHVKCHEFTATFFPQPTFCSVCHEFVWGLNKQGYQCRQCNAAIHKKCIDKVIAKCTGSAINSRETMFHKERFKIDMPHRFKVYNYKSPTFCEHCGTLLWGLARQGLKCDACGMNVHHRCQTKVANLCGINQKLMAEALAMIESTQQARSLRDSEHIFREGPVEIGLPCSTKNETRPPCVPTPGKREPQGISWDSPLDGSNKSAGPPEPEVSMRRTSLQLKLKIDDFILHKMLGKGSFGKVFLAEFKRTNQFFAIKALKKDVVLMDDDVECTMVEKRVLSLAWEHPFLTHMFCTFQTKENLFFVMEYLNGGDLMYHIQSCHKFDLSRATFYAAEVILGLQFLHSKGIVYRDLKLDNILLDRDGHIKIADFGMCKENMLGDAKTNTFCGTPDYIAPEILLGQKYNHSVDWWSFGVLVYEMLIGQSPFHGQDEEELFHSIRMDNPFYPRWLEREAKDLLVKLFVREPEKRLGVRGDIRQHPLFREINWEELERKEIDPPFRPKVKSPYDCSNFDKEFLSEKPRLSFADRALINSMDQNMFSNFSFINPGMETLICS
Excerpt: as §1, §2

mouse PKCα-mVenus = mouse PKCα-mVenus (Mus musculus, UniProt P20444); assay: Fluorescent cellular competition assay with probe 47, PKCα-mVenus; format: binding; parameters: eight plasmids encoding full length mouse PKC isozymes fused to; expressed in transfected cells; host or cells: HEK293
Excerpt: as §1, §2

[2] = target: crosslinked / purified microtubules; conditions: previously reported, cited from earlier work; for Kd: read-out: biochemical Kd for microtubules; for Ki: read-out: biochemical Ki for microtubules
[3] = tested on: cellular microtubules (HeLa cells); assay: Pilot screen of NCI Diversity Set VI: inhibition of binding of PB-GABA-Taxol, with dose-response validation; conditions: 25 μM, 3 h, normalized to DMSO (0%) and paclitaxel 10 μM (100%)
[4] = tested on: microtubules (taxane binding site) in living HeLa cells; assay: Competition binding assay with PB-GABA-Taxol in living HeLa cells (cellular Ki); conditions: read-out: cellular Ki; PB-GABA-Taxol 1.5 μM, verapamil 100 μM, 37° C., 4% FBS, 3 h
Procedure: In this assay the cellular Kd was measured by varying the concentration of the fluorescent probe added to cells at equilibrium as established by kinetic assays of probe uptake. Total binding of this probe to specific and non-specific sites in cells in the presence of the efflux inhibitor verapamil was determined by flow cytometry. Non-specific binding was quantified separately by addition of excess paclitaxel with the probe under the same conditions. Subtraction of the linear non-specific binding contribution from the total binding curve was used analyze specific binding of the probe to tubulin of microtubules. Measurement of this cellular dissociation constant under equilibrium conditions further allowed conversion of the half-maximal inhibitory concentration (IC50) of unlabeled compounds into cellular inhibitory constants using an adaptation of the Cheng-Prusoff equation^44 for competitive modulators (Ki) or the allosteric equation^45 for non-competitive modulators (Kb and the cooperativity factor α) as implemented by GraphPad Prism.

[5] = tested on: microtubules in living HeLa cells; assay: Allosteric modulator assay with PB-GABA-Taxol in living HeLa cells (cellular Kb, α); conditions: PB-GABA-Taxol 1.5 μM, verapamil 100 μM, 3 h, 37° C.; for Kb: read-out: cellular Kb (allosteric modulator)
Excerpt: In this model, two compounds that engage tubulin at different binding sites influence the binding of each other through cooperativity. […] Smaller cooperativity factors (α) represent stronger effects on binding of the orthosteric probe. For these allosteric modulators, the apparent cellular affinity was defined as Kb, and the mathematical relationship between Kb and α is provided (equation 3).
The experimental method for allosteric binding assays was identical to the competition binding assays described previously. However, because it is inaccurate to describe an allosteric modulator with a competitive inhibitory constant (Ki), we used an allosteric modulator model (Kb) for data analysis. […] The observed occupancy of the orthosteric ligand is defined as KApp and is determined by the equilibrium dissociation constant of the orthosteric ligand (Kd), the concentration of allosteric ligand, its affinity for the receptor (Kb), and the strength by which the allosteric ligand affects receptor binding to the orthosteric ligand as defined by the cooperativity factor (a).

mouse PKCβI-mVenus [6] = target: T2, mouse PKCβI-mVenus; assay: Apparent cellular Kd by flow cytometry, HEK293 cells overexpressing PKCβI-mVenus (Example 2); format: binding
Procedure: The apparent Kd values of these fluorescent probes were measured using different PKC isozymes (e.g., PKCβI, FIGS. 20A-20D). HEK293 cells were transfected to overexpress PKCβ-mVenus and treated with probes in the presence of verapamil (100 μM) as an inhibitor of efflux.

C1A-C1A-EYFP (PKCγ) = target: T3, C1A-C1A-EYFP (PKCγ) (UniProt P63319); assay: Cellular binding by flow cytometry, HEK293 cells expressing C1A-C1A-EYFP (PKCγ)
T3 construct: apparent Kd; other: verapamil 100 μM, 90 min, 37° C., DMEM high glucose, 4% FBS; half time (t1/2) of cellular fluorescence; other: 33 at 5 μM, verapamil 100 μM, room temperature; fused on or other part: EYFP at the C-terminus; the C1A module is present twice in one chain
Excerpt: The dissociation constant can be defined as the ratio of koff divided by kon. This value is also the concentration where the ligand occupies 50% of the receptor.^94 Kd is only meaningful when equilibrium is reached, where the ligand-receptor complex is formed at the same rate as it dissociates into free ligand and receptor (FIG. 15). This binding equilibrium is established when essentially no further change in the amount of bound complex is observed over time. To evaluate the time needed for equilibration, we treated HEK293 cells that overexpress C1A-C1A-EYFP (PKCγ) with 33 (0 and 5 μM) in the presence or absence of verapamil (100 μM) and cellular fluorescence was measured by flow cytometry as a function of time (FIG. 18A). […] This optimization was used to establish a 90 min equilibration period for further assay optimization.
The presence of fetal bovine serum (FBS) in the culture media also influenced the binding by sequestering the free ligand. The assay conditions were finalized using HEK293 cells incubated with the probe in the presence of verapamil for 90 min at 37° C. in DMEM media (high glucose, 4% FBS).

Structure (SMILES): CCCCCCCCCCCCCC(=O)O[C@@H]1[C@@H](C)[C@@]2(O)[C@@H](C=C(CO)C[C@]3(O)C(=O)C(C)=C[C@@H]23)[C@@H]2C(C)(C)[C@]12OC(C)=O [PMA, 12-O-tetradecanoylphorbol-13-acetate]
- Efficacy, PKCγ (mouse PKCγ-mVenus; PMA vs probe 47): 97%
- IC50/Ki, PKCγ (mouse PKCγ-mVenus; PMA vs probe 47): 2.4
- IC50 (mouse PKCγ-mVenus; probe 47 2.9 μM, verapamil 25 μM, read-out: IC50 (PMA), PKCγ): 12 nM
- Ki (mouse PKCγ-mVenus; probe 47 2.9 μM, verapamil 25 μM, read-out: Ki (PMA), PKCγ): 4.9 nM
- Efficacy, PKCδ (mouse PKCδ-mVenus; PMA vs probe 47): 81%
- IC50/Ki, PKCδ (mouse PKCδ-mVenus; PMA vs probe 47): 1.7
- IC50 (mouse PKCδ-mVenus; probe 47 5.8 μM, verapamil 25 μM, read-out: IC50 (PMA), PKCδ): 39 nM
- Ki (mouse PKCδ-mVenus; probe 47 5.8 μM, verapamil 25 μM, read-out: Ki (PMA), PKCδ): 23 nM
- Efficacy, PKCε (mouse PKCε-mVenus; PMA vs probe 47): 81%
- IC50/Ki, PKCε (mouse PKCε-mVenus; PMA vs probe 47): 1.4
- IC50 (mouse PKCε-mVenus; probe 47 2.9 μM, verapamil 25 μM, read-out: IC50 (PMA), PKCε): 49 nM
- Ki (mouse PKCε-mVenus; probe 47 2.9 μM, verapamil 25 μM, read-out: Ki (PMA), PKCε): 36 nM
- Efficacy, PKCβI (mouse PKCβI-mVenus [1]; PMA vs probe 47): 103%
- IC50/Ki, PKCβI (mouse PKCβI-mVenus [1]; PMA vs probe 47): 2.5
- IC50 (mouse PKCβI-mVenus [1]; probe 47 1.4 μM, verapamil 25 μM, read-out: IC50 (PMA), PKCβI): 15 nM
- Ki (mouse PKCβI-mVenus [1]; probe 47 1.4 μM, verapamil 25 μM, read-out: Ki (PMA), PKCβI): 5.7 nM
- Efficacy, PKCη (mouse PKCη-mVenus; PMA vs probe 47): 80%
- IC50/Ki, PKCη (mouse PKCη-mVenus; PMA vs probe 47): 1.5
- IC50 (mouse PKCη-mVenus; probe 47 4.3 μM, verapamil 25 μM, read-out: IC50 (PMA), PKCη): 32 nM
- Ki (mouse PKCη-mVenus; probe 47 4.3 μM, verapamil 25 μM, read-out: Ki (PMA), PKCη): 21 nM
- Efficacy, PKCθ (mouse PKCθ-mVenus; PMA vs probe 47): 80%
- IC50/Ki, PKCθ (mouse PKCθ-mVenus; PMA vs probe 47): 1.4
- IC50 (mouse PKCθ-mVenus; probe 47 4.3 μM, verapamil 25 μM, read-out: IC50 (PMA), PKCθ): 13 nM
- Ki (mouse PKCθ-mVenus; probe 47 4.3 μM, verapamil 25 μM, read-out: Ki (PMA), PKCθ): 10 nM
- Efficacy, PKCα (mouse PKCα-mVenus; PMA vs probe 47): 95%
- IC50/Ki, PKCα (mouse PKCα-mVenus; PMA vs probe 47): 1.9
- IC50 (mouse PKCα-mVenus; probe 47 1.4 μM, verapamil 25 μM, read-out: IC50 (PMA), PKCα): 14 nM
- Ki (mouse PKCα-mVenus; probe 47 1.4 μM, verapamil 25 μM, read-out: Ki (PMA), PKCα): 7.5 nM

Structure (SMILES): CC(=O)O[C@H]1C(=O)[C@@]2(C)[C@H]([C@H](OC(=O)c3ccccc3)[C@]3(O)C[C@H](O)C(C)=C1C3(C)C)[C@]1(OC(C)=O)CO[C@@H]1C[C@@H]2O [baccatin III]
- Kd [2]: 6.7 ± 2 µM
- inhibition of binding of PB-GABA-Taxol to cellular microtubules [3]: 28%
- Ki [4]: 17000 ± 3000 nM

Structure (SMILES): CO[C@H]1C(=O)[C@]2(C)[C@@H](OC)C[C@H]3OC[C@@]3(OC(C)=O)[C@H]2[C@H](OC(=O)c2ccccc2)[C@]2(O)C[C@H](OC(=O)[C@H](O)[C@@H](NC(=O)OC(C)(C)C)c3ccccc3)C(C)=C1C2(C)C [cabazitaxel]
- Ki [2]: 7.4 ± 0.9 nM
- Ki [4]: 6 nM

Structure (SMILES): CC(=O)O[C@@]12CO[C@@H]1C[C@H](O)[C@@]1(C)C(=O)[C@H](O)C3=C(C)[C@@H](OC(=O)[C@H](O)[C@@H](NC(=O)OC(C)(C)C)c4ccccc4)C[C@@](O)([C@@H](OC(=O)c4ccccc4)[C@H]21)C3(C)C [docetaxel]
- Ki [2]: 17 ± 6 nM
- Ki [4]: 16 nM

Structure (SMILES): COc1cc2cc(c1Cl)N(C)C(=O)C[C@H](OC(=O)[C@H](C)N(C)C(C)=O)[C@]1(C)O[C@H]1[C@H](C)[C@@H]1C[C@@](O)(NC(=O)O1)[C@H](OC)/C=C/C=C(\C)C2 [maytansine]
- cooperativity factor α [5]: 0.21
- Kb [5]: 3 nM

Structure (SMILES): CC1=C[C@H]2[C@@]3(O)[C@H](C)[C@@H](O)[C@]4(OC(=O)N(C)CCCCCCCCN(C)C(=O)c5cc6cc(F)c(O)c(F)c6oc5=O)[C@H]([C@@H]3C=C(CO)C[C@]2(O)C1=O)C4(C)C [probe 32, (1aR,1bS,4aR,7aS,7bS,8R,9R,9aS)-4a,7b,9-trihydroxy-3-(hydroxymethyl)-1,1,6,8-tetramethyl-5-oxo-1,1a,1b,4,4a,5,7a,7b,8,9-decahydro-9aH-cyclopropa[3,4]benzo[1,2-e]azulen-9a-yl (8-(6,8-difluoro-7-hydroxy-N-methyl-2-oxo-2H-chromene-3-carboxamido)octyl)(methyl)carbamate]
- Kd (mouse PKCβI-mVenus [6]): 63 µM

Structure (SMILES): C#CCN(CCCCCCCCCCCCNC(=O)c1cc2cc(F)c(O)c(F)c2oc1=O)C(=O)O[C@@]12[C@H](O)[C@@H](C)[C@@]3(O)[C@@H](C=C(CO)C[C@]4(O)C(=O)C(C)=C[C@@H]34)[C@@H]1C2(C)C [probe 48, (1aR,1bS,4aR,7aS,7bS,8R,9R,9aS)-4a,7b,9-trihydroxy-3-(hydroxymethyl)-1,1,6,8-tetramethyl-5-oxo-1,1a,1b,4,4a,5,7a,7b,8,9-decahydro-9aH-cyclopropa[3,4]benzo[1,2-e]azulen-9a-yl (12-(6,8-difluoro-7-hydroxy-2-oxo-2H-chromene-3-carboxamido)dodecyl)(prop-2-yn-1-yl)carbamate]
- affinity relative to 33 (C1A-C1A-EYFP (PKCγ)): ~2 fold
- Kd (C1A-C1A-EYFP (PKCγ); verapamil 100 μM, 90 min, 37° C., DMEM high glucose, 4% FBS, read-out: apparent Kd): 2000 nM

Structure (SMILES): CC[C@]1(O)C[C@@H]2CN(CCc3c([nH]c4ccccc34)[C@@](C(=O)OC)(c3cc4c(cc3OC)N(C)[C@H]3[C@@](O)(C(=O)OC)[C@H](OC(C)=O)[C@]5(CC)C=CCN6CC[C@]43[C@@H]65)C2)C1 [vinblastine]
- cooperativity factor α [5]: 0.18
- Kb [5]: 7 nM
- Kd [2]: 0.19 to 1 µM
